# Reference: US20230017785A1, “COMPANION DIAGNOSTICS FOR COMPLEMENT INHIBITORS” (THE JOHNS HOPKINS UNIVERSITY, priority 2019, published 2023)
# “Also recorded” adds a separate entry of the source.
# How the values were obtained:
# [1] = test system: C5b-9 deposition on PIGA null TF-1 cells; assay: Flow cytometry for C5b-9 deposition; assay type: cell-based, human; settings: for Inhibition of C5b-9 deposition induced by APS patient sera: APS patient sera on PIGA null TF-1 cells; for Inhibition of C5b-9 deposition induced by CAPS sera: CAPS patient sera (e.g. CAPS5); for Inhibition of C5b-9 deposition induced by patient-derived IgG anti-β2GPI antibody: anti-β2GPI from thrombotic APS patient APS21 added to normal human serum
# Method: Patient derived anti-β2GPI antibodies. Anti-β2GPI antibodies from two patients were affinity purified using a column of Affigel HZ to which purified human β2GPI was coupled (Bio-Rad Laboratories, Hercules, Calif.), as previously described.^43 IgG purity was assessed by reduced SDS-PAGE. Complement activation (C5b-9 deposition and complement dependent cell killing in mHam) induced by patient-derived anti-β2GPI antibodies was tested by adding patient-derived anti-β2GPI antibodies to normal human serum (Cat. NHS, Complement Technology, Inc.).
# Flow cytometry for C5b-9 deposition. Flow cytometry was performed to evaluate cell surface deposition of C5b-9 deposition on PIGA null TF1 cells. Cells were seeded in V-bottom 96-well plates (1.2×10^5 cells/well) either in GVB^0.MgEGTA (pH 6.4) buffer for alternative pathway activation or GVB++ (pH 7.4) buffer for classical pathway activation followed by addition of APS patient serum (or patient-derived aPL added to normal human serum). The reaction was incubated for 15 min at 37° C., and stopped by adding FACS buffer/EDTA. Cell pellets were separated by centrifugation at 1900 rpm for 3 minutes at room temperature and then stained with Alexa 488 conjugated anti-C3c antibody (Cat. 4212, Abcam, dilution at 1:100) and […] monoclonal primary antibody (Cat. 66768, Abcam, dilution at 1:100), followed by Alexa 647 conjugated secondary antibody. C5b-9 deposition was measured by a BD FACSCalibur. Ten thousand events were recorded per sample and analyzed using FlowJo software version 10.5.3 (FlowJo Inc). Normal human serum was used as a negative control for flow cytometry assays. We also evaluated the effect of adding anti-C5 mAb and ACH-4471 on C5b-9 deposition.
# [2] = test system: PIGA null TF-1 cells; assay: Modified Ham (mHam) assay, complement-dependent cell killing; assay type: cell-based, human; settings: anti-C5 mAb 10 μg, ACH-4471 0.33 μM; for Inhibition of cell killing in the mHam induced by APS sera: APS patient sera; for Inhibition of mHam cell killing induced by CAPS sera: CAPS patient sera
# [3] = test system: PIGA null TF-1 cells; settings: previously demonstrated (ref. 46); cited from earlier work
structure (smiles),measurement,setting,value
CC(=O)c1nn(CC(=O)N2C[C@H](F)C[C@H]2C(=O)Nc2cccc(Br)n2)c2ccc(-c3cnc(C)nc3)cc12 [ACH-4471],Inhibition of C5b-9 deposition induced by APS patient sera,[1],less so
same,Inhibition of C5b-9 deposition induced by APS patient sera,[1]; listed as ACH4471,did not appreciably inhibit; also recorded: did not prevent
same,Inhibition of C5b-9 deposition induced by CAPS sera,[1],partially blocked; also recorded: partially inhibited
same,Inhibition of C5b-9 deposition induced by CAPS sera,[1]; listed as ACH4471,partially
same,Inhibition of C5b-9 deposition induced by aHUS patient sera,[1]; aHUS patient PS-18 sera,completely inhibited
same,Inhibition of C5b-9 deposition induced by patient-derived IgG anti-β2GPI antibody,[1],partially
same,Inhibition of C5b-9 deposition induced by patient-derived IgG anti-β2GPI antibody,[1]; listed as factor D inhibitor,minimally inhibited
same,Inhibition of cell killing in the mHam induced by APS sera,[2],less so
same,Inhibition of cell killing in the mHam induced by APS sera,[2]; listed as ACH4471,did not prevent cell killing
same,Inhibition of mHam cell killing induced by CAPS sera,[2],partially blocked; also recorded: partially inhibited
same,Inhibition of mHam cell killing induced by CAPS sera,[2]; listed as factor D inhibitor,attenuated
same,Blocking complement dependent killing in the mHam with aHUS serum,[3],highly effective in blocking
